What was measured:
[1] = test system: HepG-2 cells; assay: Cell cycle analysis by flow cytometry; format: cell-based, human; conditions: HepG-2, 1.89 µM, 24 h
Procedure: The impact of the most promising compound 25 on cell cycle distribution was assessed. Such analysis gave a better insight into the effect of the synthesised compounds on cancer cell growth inhibition. HepG-2 cells were utilised in this test. The reported method described by Wand et al.[50] was followed.
The effect of the most promising compound 25 on cell cycle was evaluated using flowcytometer[50]^,[53]^,[54] as illustrated in Supplementary data.

[2] = test system: HepG-2; assay: MTT anti-proliferative assay, HepG-2; format: cell-based, human
[3] = test system: MCF-7; assay: MTT anti-proliferative assay, MCF-7; format: cell-based, human
[4] = test system: HepG-2, HCT-116, and MCF-7; assay: MTT anti-proliferative assay, ranges stated over several cell lines; format: cell-based; conditions: Homo sapiens; range over HepG-2, HCT-116 and MCF-7 and over the listed compounds; read-out: IC50 values ranging (all tested cell lines)
[5] = test system: HepG-2 cells; assay: Annexin V-FITC/PI apoptosis assay; format: cell-based, human; conditions: HepG-2, 1.89 µM, 24 h
Procedure: Annexin V and PI double staining assay[51] was carried out to explore the proposed apoptotic effect of the synthesised compounds. Compound 25 as a representative example was tested against HepG-2 cells. In this test, HepG-2 cells were incubated with compound 25 at a concentration of 1.89 µM for 24 h.
The effect of compound 25 on apoptosis induction was analysed using Annexin V-FITC/PI apoptosis detection kit using flowcytometer[51]^,[55]^,[56] as illustrated in Supplementary data.

[6] = test system: tubulin; assay: In vitro tubulin polymerisation inhibition (turbidimetric, fluorescent plate reader); format: biochemical; conditions: mean of three experiments
Procedure: The inhibition assay on microtubule polymerisation was evaluated turbidimetrically using a fluorescent plate reader.
The effect of the synthesised compounds on tubulin polymerisation was assessed turbidimetrically using a fluorescent plate reader method. The complete procedure was depected in Supplementary data.

[7] = test system: HCT-116; assay: MTT anti-proliferative assay, HCT-116; format: cell-based, human

COc1ccc2nc(Cl)c(C3CC(c4cc(OC)c(OC)c(OC)c4)=NN3c3ccc([N+](=O)[O-])cc3[N+](=O)[O-])cc2c1 (stereo not shown) [Compound 25, 2-Chloro-3-[1–(2,4-dinitrophenyl)-3–(3,4,5-trimethoxyphenyl)-4,5-dihydro-1H-pyrazol-5-yl]-6-methoxyquinoline]
effect on cell cycle [1]: arrest the cell cycle at G2/M phase | Cell cycle distribution %Pre-G1 ([1]; control 2.57): 21.46% | Cell cycle distribution %G2-M ([1]; control 13.8): 30.17% | Cell cycle distribution %S ([1]; control 24.83): 28.95% | Cell cycle distribution %G0-G1 ([1]; control 61.37): 40.88% | IC50 ([2]; Homo sapiens, HepG2, MTT, mean ± SD of three experiments, read-out: IC50 HepG-2): 1.89 ± 0.2 µM | times of colchicine cytotoxic activity, HepG-2 ([2]; ratio of IC50 to colchicine): 3.91 times | IC50 ([3]; Homo sapiens, MCF7, MTT, mean ± SD of three experiments, read-out: IC50 MCF-7): 4.21 ± 0.1 µM | times of colchicine cytotoxic activity, MCF-7 ([3]; ratio of IC50 to colchicine): 2.47 times | IC50 [4]: 1.78 to 9.19 µM | melting point: 135 to 136 °C | apoptotic effect relative to control [5]: thirteen times more than the control | Apoptosis Early ([5]; control 0.67): 7.66% | Apoptosis Late ([5]; control 0.72): 11.39% | Necrosis ([5]; control 1.18): 2.41% | apoptotic effect (early and late apoptosis) ([5]; control 1.39%): 19.05% | IC50 [6]: 0.0413 µM | IC50 ([7]; Homo sapiens, HCT-116, MTT, mean ± SD of three experiments, read-out: IC50 HCT-116): 1.43 ± 0.1 µM | times of colchicine cytotoxic activity, HCT-116 ([7]; ratio of IC50 to colchicine): 6.51 times

— publication PMC7889231 (Journal of Enzyme Inhibition and Medicinal Chemistry, 2021)
